According to patent US8580751B2, “Esterified α-galactosylceramide” (Riken, priority 2008, dated 2013):

What was measured:
[1] = test system: human NKT cells; details: human system; cited from earlier work
[2] = test system: NKT cells; details: cited from earlier work
[3] = test system: IFN-γ; experiment: IFN-γ content in serum after intraperitoneal administration of synthetic glycolipid to mouse (sandwich ELISA); type: in vivo; details: 100 μg/kg body weight intraperitoneally, C57BL/6 mice, 6-24 hr (compounds 23, 24) or 3-60 hr (compound 33) after administration
Description: (§1) A 1 mg/mL dimethyl sulfoxide (DMSO) solution was prepared for each of α-GalCer, compound 23 and compound 24. The solutions were diluted with saline (manufactured by Otsuka Pharmaceutical Co., Ltd.) containing 0.5% Tween 20 (Bio-Rad) such that the dose would be 100 μg/kg body weight when 200 μL was intraperitoneally administered to one mouse.
(§2) Each of the prepared solutions (200 μL) of compounds 23 and 24 was intraperitoneally injected to C57BL/6 mice (2 per group). α-GalCer was used as a control substance, and 200 μL of α-GalCer solution prepared to a dose of 100 μg/kg body weight according to a similar method was injected intraperitoneally. A group administered with a medium (200 μL of saline containing 0.5% Tween 20) was taken as a negative control. The blood (80 μL) was taken from the orbital plexus venosus after the lapse of 6, 12 and 24 hr from the administration, and the serum was prepared.
(§3) The content of IFN-γ in the serum after lapse of 6, 12 and 24 hr from the administration was measured by sandwich ELISA (ENDOGEN). In addition, the content of IL-4 in the serum after lapse of 12 hr from the administration was measured by Cytometric bead array system (BD Biosciences), which is one kind of the ELISA method.
(§4) Using α-GalCer and compound 33, and according to a method similar to the above-mentioned Experimental Example 1, the blood (80 μL) was taken from the orbital plexus venosus after the lapse of 3, 6, 12, 24, 36, 48 and 60 hr from the administration, and the serum was prepared.
(§5) The content of IFN-γ in the serum after lapse of 3, 6, 12, 24, 36, 48 and 60 hr from the administration was measured by a method similar to the above-mentioned Experimental Example 1. In addition, the content of IL-4 in the serum after lapse of 3, 6 and 12 hr from the administration was measured by a method similar to the above-mentioned Experimental Example 1.

[4] = test system: IL-4; experiment: IL-4 content in serum after intraperitoneal administration of synthetic glycolipid to mouse (Cytometric bead array system); type: in vivo; details: 100 μg/kg body weight intraperitoneally, C57BL/6 mice, 12 hr (compounds 23, 24) or 3, 6, 12 hr (compound 33) after administration
Description: as §1, §2, §3, §4, §5

[5] = test system: NKT cells; details: series of synthetic analogs of α-galactosylceramide; cited from earlier work

Row | SMILES | activity on human NKT cells in vitro [1] | production of IFN-γ as compared to α-GalCer [3] | production of IL-4 as compared to α-GalCer [4] | also measured
1 | CCCCCCCCCCCCCCCCCCCCCCCCCC(=O)N[C@@H](CO[C@H]1CC(CO)[C@H](O)C(O)C1O)[C@H](O)[C@H](O)CCCCCCCCCCCCCC (stereo partly shown) | strong activity |  |  | IFN-γ production by NKT cells [2]: strongly induces
2 | CCCCCCC#CCCCCCC[C@@H](O)[C@@H](O)[C@H](CO[C@H]1O[C@H](CO)[C@H](O)[C@H](O)[C@H]1O)OC(=O)CCCCCCCCCCCCCCCCCCCCCCCCC [Compound 23, (2S,3R,4R)-3,4-dihydroxy-2-hexacosanoyloxy-11-octadecyn-1-yl α-D-galactopyranoside] |  | equivalent or higher | lower | 
3 | CCCCCCCCCCCCCCCCCCCCCCCCCC(=O)O[C@@H](CO[C@H]1O[C@H](CO)[C@H](O)[C@H](O)[C@H]1O)[C@H](O)[C@H](O)CCCCCCCCCCCCCC [Compound 24, (2S,3R,4R)-3,4-dihydroxy-2-hexacosanoyloxyoctadecyl α-D-galactopyranoside] |  | equivalent or higher | lower | 
4 | CCCCCCCCCCCCCCCCCCCCCCCCCC(=O)O[C@@H](CO[C@H]1O[C@H](COC)[C@H](O)[C@H](O)[C@H]1O)[C@H](O)[C@H](O)CCCCCCCCCCCCCC [Compound 33, (2S,3R,4R)-3,4-dihydroxy-2-hexacosanoyloxyoctadecyl 6-O-methyl-α-D-galactopyranoside] |  | equivalent or higher | lower | 
5 | CCCCCCCCCCCCCCCCCCCCCCCCCC(=O)N[C@@H](CC[C@H]1OC(CO)[C@H](O)C(O)C1O)[C@H](O)[C@H](O)CCCCCCCCCCCCCC (stereo partly drawn) [α-C-GalCer] | very weak activity |  |  | 
6 | CCCCCCCCCCCCCCCCCCCCCCCCCC(=O)N[C@@H](CO[C@H]1OC(CO)[C@H](O)C(O)C1O)[C@H](O)[C@H](O)CCCCCCCCCCCCCC (stereo partly drawn) [α-GalCer] |  |  |  | immunostimulatory activity [5]: induces the strongest activity
